We go through 1 molecule from PMC12467512, “Pharmacological Characterization of the Novel CRF1 Receptor Antagonist, Thiazolo[4,5-d] Pyrimidine Analog, M43” (Biomolecules, 2025).

The structures appear in SMILES notation.

For this assay, the target named is T1, CRF1R (type 1 receptor for the corticotropin-releasing factor) (Homo sapiens, UniProt P34998).
T1 construct: gene CRHR1
T1 sequence (P34998 24-415): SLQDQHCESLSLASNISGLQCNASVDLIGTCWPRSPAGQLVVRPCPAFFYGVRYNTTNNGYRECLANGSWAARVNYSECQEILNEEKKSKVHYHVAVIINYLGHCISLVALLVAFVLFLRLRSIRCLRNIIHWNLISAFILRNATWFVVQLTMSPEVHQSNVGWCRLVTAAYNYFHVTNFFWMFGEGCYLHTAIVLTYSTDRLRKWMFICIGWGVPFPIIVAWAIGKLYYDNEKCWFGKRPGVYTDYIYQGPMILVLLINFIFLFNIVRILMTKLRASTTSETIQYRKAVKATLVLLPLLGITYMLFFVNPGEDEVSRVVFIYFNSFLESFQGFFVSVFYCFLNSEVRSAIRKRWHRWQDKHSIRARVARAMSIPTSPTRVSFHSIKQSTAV
Nature of the assay: inhibition of cAMP accumulation stimulated by […] Tyr0-sauvagine in HEK […] cells stably expressing human CRF1R; also […] shift of agonist potency at […] M43. In kind it is cell-based.

As for `CCCCN(CC)c1nc(C)nc2c1s/c(=N\O)n2-c1c(Cl)cc(Cl)cc1Cl` [M43], the IC50 stood at 43.5 nM.
